Legend:
CYPIR (Rice Flatsedge) = test: Preemergence weed control under flooded paddy conditions; type: in vivo, Cyperus iria; settings: rated 3-4 weeks after treatment
How it was run: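 Seeds or propagules sown in silt loam kept flooded 1.5-3 cm; compounds in 50/50 acetone/water pipetted into flood water at about 0.0313 to 0.500 kg/ha. Greenhouse; visual 0-9 rating versus untreated control 3-4 weeks after treatment.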

ORYSAT (Rice, Tebonnet) = test: Postemergence herbicidal evaluation; type: in vivo, Oryza sativa, (L.) Tebonnet; settings: for ORYSAT herbicidal rating: postemergence
How it was run: (§1)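 Visual 0–9 rating versus control (stand, vigor, malformation, size, chlorosis, overall appearance), taken four to five weeks post-spray. Two-week-old seedlings received roughly 0.0156–0.500 kg/ha active in acetone/water (50/50) with 0.5% TWEEN 20 via nozzle at 40 psi.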

[1] = test system: CHEAL (Lambsquarters, Common); test: Postemergence herbicidal evaluation; type: in vivo, Chenopodium album; settings: for CHEAL herbicidal rating: postemergence
How it was run: as §1

SETVI (Foxtail, Green) [2] = test: Preemergence herbicidal evaluation; type: in vivo, Setaria viridis; settings: rated 4-5 weeks after treatment
How it was run: (§2)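 Seeds were planted in potting soil in cups, then sprayed preemergence with the test compound in aqueous acetone at about 0.0156 to 0.500 kg per hectare. Cups were kept under greenhouse conditions and visually rated 4–5 weeks after treatment on a 0–9 scale against an untreated control.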

[3] = test system: ECHORC (Watergrass (Calif.)); test: Postemergence weed control under flooded paddy conditions; type: in vivo, Echinochloa oryzoides; settings: postemergence weeds, 3-4 weeks after treatment
How it was run: (§3)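 With weeds 3 to 5 cm tall and rice at the 1.5 to 2.5 leaf stage, containers were flooded and water held 1.5 to 3 cm above soil. Compounds in 50/50 v/v aqueous/acetone went into the flood water at about 0.0313 to 0.500 kg/ha a.i. Effects were visually rated 0–9 against controls after three to four weeks in the greenhouse.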

AMBEL (Ragweed, Common) = test: Preemergence herbicidal evaluation; type: in vivo, Ambrosia artemisifolia; settings: rated 4-5 weeks after treatment
How it was run: as §2

SETVI (Foxtail, Green) [4] = test: Postemergence herbicidal evaluation; type: in vivo, Setaria viridis; settings: for SETVI herbicidal rating: postemergence
How it was run: as §1

ZEAMX (Corn, Field) = test: Postemergence herbicidal evaluation; type: in vivo, Zea mays; settings: for ZEAMX herbicidal rating: postemergence
How it was run: as §1

[5] = test system: TRZAWR (Wheat, Winter, cv Riband); test: Postemergence herbicidal evaluation; type: in vivo, Triticum aestivum; settings: for TRZAWR herbicidal rating: postemergence
How it was run: as §1

ABUTH (Velvetleaf) = test: Postemergence herbicidal evaluation; type: in vivo, Abutilon theophrasti; settings: for ABUTH herbicidal rating: postemergence
How it was run: as §1

[6] = test system: SAGPY (Arrowhead (Pygmaea)); test: Postemergence weed control under flooded paddy conditions; type: in vivo, Sagittaria pygmaea; settings: postemergence weeds, 3-4 weeks after treatment
How it was run: as §3

[7] = test system: GLXMAW (Soybean, Williams); test: Postemergence herbicidal evaluation; type: in vivo, Glycine max, (L.) Merr. cv Williams; settings: for GLXMAW herbicidal rating: postemergence
How it was run: as §1

CYPSE (Flatsedge) = test: Postemergence weed control under flooded paddy conditions; type: in vivo, Cyperus serotinus; settings: postemergence weeds, 3-4 weeks after treatment
How it was run: as §3

GALAP (Galium) = test: Preemergence herbicidal evaluation; type: in vivo, Galium aparine; settings: rated 4-5 weeks after treatment
How it was run: as §2

## CCOC(=O)CN1C(=O)CSC1=Nc1cc(-n2c(=O)cc(C(F)(F)F)n(C)c2=O)c(F)cc1Cl [Compound 8, Ethyl 2-{{2-chloro-5-[3,6-dihydro-3-methyl-2,6-dioxo-4-(trifluoromethyl)-1(2H)pyrimidinyl]-4-fluorophenyl}imino}-4-oxo-3-thiazolidineacetate]
CYPIR (Rice Flatsedge); 0.0313 kg/ha
  Herbicidal rating CYPIR: 0.0
CYPIR (Rice Flatsedge); 0.0625 kg/ha
  Herbicidal rating CYPIR: 0.0
CYPIR (Rice Flatsedge); 0.1250 kg/ha
  Herbicidal rating CYPIR: 0.0
CYPIR (Rice Flatsedge); 0.2500 kg/ha
  Herbicidal rating CYPIR: 4.0
ORYSAT (Rice, Tebonnet); rate 0.0157 kg/ha
  ORYSAT herbicidal rating: 2.0
ORYSAT (Rice, Tebonnet); rate 0.0313 kg/ha
  ORYSAT herbicidal rating: 2.7
ORYSAT (Rice, Tebonnet); rate 0.0625 kg/ha
  ORYSAT herbicidal rating: 4.1
ORYSAT (Rice, Tebonnet); rate 0.1250 kg/ha
  ORYSAT herbicidal rating: 5.3
[1]; rate 0.0157 kg/ha
  CHEAL herbicidal rating: 5.0
[1]; rate 0.0313 kg/ha
  CHEAL herbicidal rating: 7.5
[1]; rate 0.0625 kg/ha
  CHEAL herbicidal rating: 8.4
[1]; rate 0.1250 kg/ha
  CHEAL herbicidal rating: 9.0
SETVI (Foxtail, Green) [2]; rate 0.0156 kg/ha
  SETVI preemergence herbicidal rating: 2.8
SETVI (Foxtail, Green) [2]; rate 0.0313 kg/ha
  SETVI preemergence herbicidal rating: 6.1
SETVI (Foxtail, Green) [2]; rate 0.0625 kg/ha
  SETVI preemergence herbicidal rating: 8.2
SETVI (Foxtail, Green) [2]; rate 0.1250 kg/ha
  SETVI preemergence herbicidal rating: 9.0
SETVI (Foxtail, Green) [2]; rate 0.2500 kg/ha
  SETVI preemergence herbicidal rating: 9.0
SETVI (Foxtail, Green) [2]; rate 0.5000 kg/ha
  SETVI preemergence herbicidal rating: 9.0
[3]; rate 0.0313 kg/ha
  Herbicidal rating ECHORC: 6.5
[3]; rate 0.0625 kg/ha
  Herbicidal rating ECHORC: 6.5
[3]; rate 0.1250 kg/ha
  Herbicidal rating ECHORC: 7.5
[3]; rate 0.2500 kg/ha
  Herbicidal rating ECHORC: 8.5
AMBEL (Ragweed, Common); rate 0.0156 kg/ha
  AMBEL preemergence herbicidal rating: 1.6
AMBEL (Ragweed, Common); rate 0.0313 kg/ha
  AMBEL preemergence herbicidal rating: 4.5
AMBEL (Ragweed, Common); rate 0.0625 kg/ha
  AMBEL preemergence herbicidal rating: 5.7
AMBEL (Ragweed, Common); rate 0.1250 kg/ha
  AMBEL preemergence herbicidal rating: 8.5
AMBEL (Ragweed, Common); rate 0.2500 kg/ha
  AMBEL preemergence herbicidal rating: 8.9
AMBEL (Ragweed, Common); rate 0.5000 kg/ha
  AMBEL preemergence herbicidal rating: 9.0
SETVI (Foxtail, Green) [4]; rate 0.0313 kg/ha
  SETVI herbicidal rating: 5.3
SETVI (Foxtail, Green) [4]; rate 0.0625 kg/ha
  SETVI herbicidal rating: 7.6
SETVI (Foxtail, Green) [4]; rate 0.1250 kg/ha
  SETVI herbicidal rating: 9.0
ZEAMX (Corn, Field); rate 0.0157 kg/ha
  ZEAMX herbicidal rating: 7.5
ZEAMX (Corn, Field); rate 0.0313 kg/ha
  ZEAMX herbicidal rating: 7.3
ZEAMX (Corn, Field); rate 0.0625 kg/ha
  ZEAMX herbicidal rating: 7.4
ZEAMX (Corn, Field); rate 0.1250 kg/ha
  ZEAMX herbicidal rating: 7.6
[5]; rate 0.0157 kg/ha
  TRZAWR herbicidal rating: 3.5
[5]; rate 0.0313 kg/ha
  TRZAWR herbicidal rating: 5.1
[5]; rate 0.0625 kg/ha
  TRZAWR herbicidal rating: 6.4
[5]; rate 0.1250 kg/ha
  TRZAWR herbicidal rating: 6.4
ABUTH (Velvetleaf); rate 0.0157 kg/ha
  ABUTH herbicidal rating: 9.0
ABUTH (Velvetleaf); rate 0.0313 kg/ha
  ABUTH herbicidal rating: 9.0
ABUTH (Velvetleaf); rate 0.0625 kg/ha
  ABUTH herbicidal rating: 9.0
ABUTH (Velvetleaf); rate 0.1250 kg/ha
  ABUTH herbicidal rating: 9.0
[6]; rate 0.0313 kg/ha
  Herbicidal rating SAGPY: 0.0
[6]; rate 0.0625 kg/ha
  Herbicidal rating SAGPY: 0.0
[6]; rate 0.1250 kg/ha
  Herbicidal rating SAGPY: 0.0
[6]; rate 0.2500 kg/ha
  Herbicidal rating SAGPY: 0.0
[7]; rate 0.0157 kg/ha
  GLXMAW herbicidal rating: 7.5
[7]; rate 0.0313 kg/ha
  GLXMAW herbicidal rating: 7.6
[7]; rate 0.0625 kg/ha
  GLXMAW herbicidal rating: 7.9
[7]; rate 0.1250 kg/ha
  GLXMAW herbicidal rating: 8.4
CYPSE (Flatsedge); rate 0.0313 kg/ha
  Herbicidal rating CYPSE: 0.0
CYPSE (Flatsedge); rate 0.0625 kg/ha
  Herbicidal rating CYPSE: 0.0
CYPSE (Flatsedge); rate 0.1250 kg/ha
  Herbicidal rating CYPSE: 0.0
CYPSE (Flatsedge); rate 0.2500 kg/ha
  Herbicidal rating CYPSE: 0.0
GALAP (Galium); rate 0.0156 kg/ha
  GALAP preemergence herbicidal rating: 0.0
GALAP (Galium); rate 0.0313 kg/ha
  GALAP preemergence herbicidal rating: 1.3
GALAP (Galium); rate 0.0625 kg/ha
  GALAP preemergence herbicidal rating: 5.5
GALAP (Galium); rate 0.1250 kg/ha
  GALAP preemergence herbicidal rating: 7.5
GALAP (Galium); rate 0.2500 kg/ha
  GALAP preemergence herbicidal rating: 9.0
GALAP (Galium); rate 0.5000 kg/ha
  GALAP preemergence herbicidal rating: 9.0

## Cn1c(C(F)(F)F)cc(=O)n(-c2cc(N=C3SCC(=O)N3CC(=O)OC(C)(C)C)c(Cl)cc2F)c1=O [Compound 43, tert-Butyl 2-{{2-chloro-5-[3,6-dihydro-3-methyl-2,6-dioxo-4-(trifluoromethyl)-1(2H)-pyrimidinyl]-4-fluorophenyl}imino}-4-oxo-3-thiazolidineacetate]
CYPIR (Rice Flatsedge); 0.0313 kg/ha
  Herbicidal rating CYPIR: 0.0
CYPIR (Rice Flatsedge); 0.0625 kg/ha
  Herbicidal rating CYPIR: 2.0
CYPIR (Rice Flatsedge); 0.1250 kg/ha
  Herbicidal rating CYPIR: 4.0
CYPIR (Rice Flatsedge); 0.2500 kg/ha
  Herbicidal rating CYPIR: 5.0
ORYSAT (Rice, Tebonnet); Rate 0.0158 kg/ha
  Postemergence herbicidal rating ORYSAT: 1.0
ORYSAT (Rice, Tebonnet); Rate 0.0315 kg/ha
  Postemergence herbicidal rating ORYSAT: 2.0
ORYSAT (Rice, Tebonnet); Rate 0.0630 kg/ha
  Postemergence herbicidal rating ORYSAT: 3.0
[1]; Rate 0.0158 kg/ha
  Postemergence herbicidal rating CHEAL: 5.0
[1]; Rate 0.0315 kg/ha
  Postemergence herbicidal rating CHEAL: 9.0
[1]; Rate 0.0630 kg/ha
  Postemergence herbicidal rating CHEAL: 9.0
SETVI (Foxtail, Green) [2]; rate 0.0156 kg/ha
  Preemergence herbicidal rating SETVI: 0.0
SETVI (Foxtail, Green) [2]; rate 0.0313 kg/ha
  Preemergence herbicidal rating SETVI: 0.0
SETVI (Foxtail, Green) [2]; rate 0.0625 kg/ha
  Preemergence herbicidal rating SETVI: 0.0
SETVI (Foxtail, Green) [2]; rate 0.1250 kg/ha
  Preemergence herbicidal rating SETVI: 5.0
SETVI (Foxtail, Green) [2]; rate 0.2500 kg/ha
  Preemergence herbicidal rating SETVI: 9.0
[3]; rate 0.0313 kg/ha
  Herbicidal rating ECHORC: 5.0
[3]; rate 0.0825 kg/ha
  Herbicidal rating ECHORC: 6.0
[3]; rate 0.1250 kg/ha
  Herbicidal rating ECHORC: 7.0
[3]; rate 0.2500 kg/ha
  Herbicidal rating ECHORC: 9.0
AMBEL (Ragweed, Common); rate 0.0156 kg/ha
  Preemergence herbicidal rating AMBEL: 0.0
AMBEL (Ragweed, Common); rate 0.0313 kg/ha
  Preemergence herbicidal rating AMBEL: 0.0
AMBEL (Ragweed, Common); rate 0.0625 kg/ha
  Preemergence herbicidal rating AMBEL: 0.0
AMBEL (Ragweed, Common); rate 0.1250 kg/ha
  Preemergence herbicidal rating AMBEL: 3.0
AMBEL (Ragweed, Common); rate 0.2500 kg/ha
  Preemergence herbicidal rating AMBEL: 4.0
SETVI (Foxtail, Green) [4]; Rate 0.0158 kg/ha
  Postemergence herbicidal rating SETVI: 3.0
SETVI (Foxtail, Green) [4]; Rate 0.0315 kg/ha
  Postemergence herbicidal rating SETVI: 3.0
SETVI (Foxtail, Green) [4]; Rate 0.0630 kg/ha
  Postemergence herbicidal rating SETVI: 8.0
ZEAMX (Corn, Field); Rate 0.0158 kg/ha
  Postemergence herbicidal rating ZEAMX: 4.5
ZEAMX (Corn, Field); Rate 0.0315 kg/ha
  Postemergence herbicidal rating ZEAMX: 5.0
ZEAMX (Corn, Field); Rate 0.0630 kg/ha
  Postemergence herbicidal rating ZEAMX: 5.5
[5]; Rate 0.0158 kg/ha
  Postemergence herbicidal rating TRZAWR: 3.0
[5]; Rate 0.0315 kg/ha
  Postemergence herbicidal rating TRZAWR: 3.5
[5]; Rate 0.0630 kg/ha
  Postemergence herbicidal rating TRZAWR: 4.0
ABUTH (Velvetleaf); Rate 0.0158 kg/ha
  Postemergence herbicidal rating ABUTH: 9.0
ABUTH (Velvetleaf); Rate 0.0315 kg/ha
  Postemergence herbicidal rating ABUTH: 9.0
ABUTH (Velvetleaf); Rate 0.0630 kg/ha
  Postemergence herbicidal rating ABUTH: 9.0
[6]; rate 0.0313 kg/ha
  Herbicidal rating SAGPY: 7.0
[6]; rate 0.0825 kg/ha
  Herbicidal rating SAGPY: 7.0
[6]; rate 0.1250 kg/ha
  Herbicidal rating SAGPY: 7.0
[6]; rate 0.2500 kg/ha
  Herbicidal rating SAGPY: 9.0
[7]; Rate 0.0158 kg/ha
  Postemergence herbicidal rating GLXMAW: 7.5
[7]; Rate 0.0315 kg/ha
  Postemergence herbicidal rating GLXMAW: 7.0
[7]; Rate 0.0630 kg/ha
  Postemergence herbicidal rating GLXMAW: 7.0
CYPSE (Flatsedge); rate 0.0313 kg/ha
  Herbicidal rating CYPSE: 5.0
CYPSE (Flatsedge); rate 0.1250 kg/ha
  Herbicidal rating CYPSE: 8.0
CYPSE (Flatsedge); rate 0.2500 kg/ha
  Herbicidal rating CYPSE: 9.0
GALAP (Galium); rate 0.0156 kg/ha
  Preemergence herbicidal rating GALAP: 0.0
GALAP (Galium); rate 0.0313 kg/ha
  Preemergence herbicidal rating GALAP: 0.0
GALAP (Galium); rate 0.0625 kg/ha
  Preemergence herbicidal rating GALAP: 0.0
GALAP (Galium); rate 0.1250 kg/ha
  Preemergence herbicidal rating GALAP: 9.0
GALAP (Galium); rate 0.2500 kg/ha
  Preemergence herbicidal rating GALAP: 9.0
